# Patent publication US20250241926A1, “HETEROCYCLIC COMPOUNDS FOR USE IN THE TREATMENT OF CANCER” (ARTIOS PHARMA LIMITED, priority 2021, published 2025)
# Biological target: T1, Human Polθ polymerase domain (aa1820-2590) (Homo sapiens, UniProt O75417)
# T1 construct: Human Polθ polymerase domain (aa1820-2590) was expressed in E. Coli; made in house; host or cells: E. coli
# T1 sequence (O75417 1820-2590): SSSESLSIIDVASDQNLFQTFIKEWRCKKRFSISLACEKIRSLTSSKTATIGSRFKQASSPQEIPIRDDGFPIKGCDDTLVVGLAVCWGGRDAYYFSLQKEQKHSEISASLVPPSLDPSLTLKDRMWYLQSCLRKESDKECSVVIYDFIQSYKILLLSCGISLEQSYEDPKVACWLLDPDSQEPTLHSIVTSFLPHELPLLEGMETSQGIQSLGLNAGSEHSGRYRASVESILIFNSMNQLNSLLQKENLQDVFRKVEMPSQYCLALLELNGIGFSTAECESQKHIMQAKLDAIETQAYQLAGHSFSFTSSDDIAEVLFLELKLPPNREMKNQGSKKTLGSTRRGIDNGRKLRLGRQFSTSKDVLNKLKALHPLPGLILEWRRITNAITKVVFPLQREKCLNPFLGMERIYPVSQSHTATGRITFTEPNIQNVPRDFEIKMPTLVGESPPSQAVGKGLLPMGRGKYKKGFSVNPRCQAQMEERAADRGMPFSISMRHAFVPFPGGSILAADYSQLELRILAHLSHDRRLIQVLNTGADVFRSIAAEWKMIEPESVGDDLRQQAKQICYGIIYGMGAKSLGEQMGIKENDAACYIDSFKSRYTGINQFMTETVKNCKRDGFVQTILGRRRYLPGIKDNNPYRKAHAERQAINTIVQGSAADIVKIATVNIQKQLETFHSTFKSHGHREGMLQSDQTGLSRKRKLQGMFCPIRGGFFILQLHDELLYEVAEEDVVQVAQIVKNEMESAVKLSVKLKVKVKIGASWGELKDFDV
# Assay: Polθ Polymerase Domain Kinact/Kl Assay (PicoGreen)
# Type: biochemical
# Conditions: covalent inhibitors, kobs vs [I] fit, 0.8 nM Polθ, 100 nM DNA substrate
# In short: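 E. coli-expressed enzyme (0.8 nM final) was run with 100 nM annealed DNA substrate and dNTPs in Tris pH 7.5 buffer (1% DMSO), with EDTA stops across a time course up to 60 min. Synthesised DNA was read by PicoGreen fluorescence. kobs per inhibitor concentration was fitted from the time courses, and Kinact and KI came from the kobs-vs-[I] plot.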
row,Molecule,kinact/KI
1,"(S,E)-2-((6-(2-((2- (4-(Dimethyl- amino)but-2-eno- yl)-2-azaspiro[3.3] heptan-6-yl)-oxy)- ethyl)-7-fluoro-1- methyl-2-oxo- 1,2,3,4,5,6-hexa- hydrobenzo[b] [1,4]diazocin-3- yl)amino)-6-meth- yl-4-(trifluoro- methyl)nicotino- nitrile [Example 45]",5.7e+06 M⁻¹ s⁻¹
2,"(S)-2-((6-(2-(3-(4-Acrylo- ylpiperazin-1-yl)azetidin- 1-yl)ethyl)-7-fluoro-1- methyl-2-oxo-1,2,3,4,5,6- hexahydrobenzo[b][1,4] diazocin-3-yl)amino)-6- methyl-4-(trifluorometh- yl)nicotinonitrile [Example 10]",190000 M⁻¹ s⁻¹
3,"2-(((3S)-6-(2-(7- ((E)-4-(Dimethyl- amino)but-2-eno- yl)-1-oxo-2,7- diazaspiro[4.4] nonan-2-yl)ethyl)- 7-fluoro-1- methyl-2-oxo- 1,2,3,4,5,6-hexa- hydrobenzo[b] [1,4]diazocin-3- yl)amino)-6-meth- yl-4-(trifluoro- methyl)nicotino- nitrile [Example 47]",380000 M⁻¹ s⁻¹
4,"2-(((S)-6-(2-((1R,4R)-5- (1-Acryloylazetidin-3-yl)- 2,5-diazabicyclo[2.2.1] heptan-2-yl)ethyl)-7- fluoro-1-methyl-2-oxo- 1,2,3,4,5,6-hexahydro- benzo[b][1,4]diazocin-3- yl)amino)-6-methyl-4- (trifluoromethyl)nicotino- nitrile [Example 18]",230000 M⁻¹ s⁻¹
5,"C=CC(=O)N1CC(N2CC(=O)N(C)C(CN3CC[C@H](Nc4nc(C)cc(C(F)(F)F)c4C#N)C(=O)N(C)c4cccc(F)c43)C2)C1 (mixture of isomers) [Example 58A, 2-(((S)-6-(((S/R)-4-(1-Acryloylazetidin-3-yl)-1-methyl-6-oxopiperazin-2-yl)methyl)-7-fluoro-1-methyl-2-oxo-1,2,3,4,5,6-hexahydrobenzo[b][1,4]diazocin-3-yl)amino)-6-methyl-4-(trifluoromethyl)nicotinonitrile]",60000 M⁻¹ s⁻¹

# Same assay, conditions: covalent inhibitors, kobs vs [I] fit, 0.8 nM Polθ, 100 nM DNA substrate, read-out: Kinact/KI
row,Molecule,kinact/KI
1,"Cc1cc(C(F)(F)F)c(C#N)c(N[C@H]2CCN(CCOC3CCN(C(=O)/C=C/CN(C)C)CC3)c3c(F)cccc3N(C)C2=O)n1 [Example 49, (S,E)-2-((6-(2-((1-(4-(Dimethyl-amino)but-2-enoyl)piperidin-4-yl)oxy)ethyl)-7-fluoro-1-methyl-2-oxo-1,2,3,4,5,6-hexahydrobenzo [b][1,4]diazocin-3-yl)amino)-6-methyl-4-(tri-fluoromethyl)-nicotinonitrile]",110000 M⁻¹ s⁻¹
2,"Cc1cc(C(F)(F)F)c(C#N)c(N[C@H]2CCN(CCCN3CCN(C(=O)/C=C/CN(C)C)CC3)c3cc(F)ccc3N(C)C2=O)n1 [Example 39, (S,E)-2-((6-(3-(4-(4-(Dimethylamino)but-2-enoyl)piperazin-1-yl)propyl)-8-fluoro-1-methyl-2-oxo-1,2,3,4,5,6-hexahydrobenzo[b][1,4]diazocin-3-yl)amino)-6-methyl-4-(trifluoromethyl)nicotinonitrile]",1e+06 M⁻¹ s⁻¹
3,"C=CC(=O)N1CC2(CN(CCN3CC[C@H](Nc4nc(C)cc(C(F)(F)F)c4C#N)C(=O)N(C)c4cccc(F)c43)CCN2C(C)=O)C1 [Example 71, (S)-2-((6-(2-(5-Acetyl-2-acryloyl-2,5,8-triazaspiro[3.5]nonan-8-yl)ethyl)-7-fluoro-1-methyl-2-oxo-1,2,3,4,5,6-hexahydrobenzo[b][1,4]diazocin-3-yl)amino)-6-methyl-4-(trifluoromethyl)nicotinonitrile]",1.4e+06 M⁻¹ s⁻¹
4,"C=CC(=O)N1CC(O[C@@H]2CN(CCN3CC[C@H](Nc4nc(C)cc(C(F)(F)F)c4C#N)C(=O)N(C)c4cccc(F)c43)C[C@H]2O)C1 (single isomer, unassigned) [Example 65B]",550000 M⁻¹ s⁻¹
5,"Cc1cc(C(F)(F)F)c(C#N)c(N[C@H]2CCN(CCN3CC4(CN(C(=O)/C=C/CN(C)C)C4)OC3=O)c3c(F)cccc3N(C)C2=O)n1 [Example 24, (S,E)-2-((6-(2-(2-(4-(Dimethylamino)but-2-enoyl)-6-oxo-5-oxa-2,7-diazaspiro[3.4]octan-7-yl)ethyl)-7-fluoro-1-methyl-2-oxo-1,2,3,4,5,6-hexahydrobenzo[b][1,4]diazocin-3-yl)amino)-6-methyl-4-(trifluoromethyl)nicotinonitrile]",630000 M⁻¹ s⁻¹
6,"C=CC(=O)N1CCN(CCCN2CC[C@H](Nc3nc(C)cc(C(F)(F)F)c3C#N)C(=O)N(C)c3ccc(F)cc32)CC1 [Example 38, (S)-2-((6-(3-(4-Acryloylpiperazin-1-yl)propyl)-8-fluoro-1-methyl-2-oxo-1,2,3,4,5,6-hexahydrobenzo[b][1,4]diazocin-3-yl)amino)-6-methyl-4-(trifluoromethyl)nicotinonitrile]",480000 M⁻¹ s⁻¹
7,"C=CC(=O)N1CC2(CN(CCN3CC[C@H](Nc4nc(C)cc(C(F)(F)F)c4C#N)C(=O)N(C)c4ccccc43)C2)C1 [Example 22, (S)-2-((6-(2-(6-Acryloyl-2,6-diazaspiro[3.3]heptan-2-yl)ethyl)-1-methyl-2-oxo-1,2,3,4,5,6-hexa-hydrobenzo[b][1,4]diazocin-3-yl)amino)-6-methyl-4-(trifluorometh-yl)nicotinonitrile]",500000 M⁻¹ s⁻¹
8,"C=CC(=O)N1CC(N2CC(=O)N(C)C(CN3CC[C@H](Nc4nc(C)cc(C(F)(F)F)c4C#N)C(=O)N(C)c4cccc(F)c43)C2)C1 (single isomer, unassigned) [Example 58B]",40000 M⁻¹ s⁻¹
9,"Cc1cc(C(F)(F)F)c(C#N)c(N[C@H]2CCN(CCN(C)C(=O)[C@@H]3CCN(C(=O)/C=C/CN(C)C)C3)c3ccccc3N(C)C2=O)n1 [Example 30, (R)—N-(2-((S)-4-((3-Cyano-6-methyl-4-(trifluoromethyl)pyridin-2-yl)amino)-6-methyl-5-oxo-3,4,5,6-tetrahydrobenzo[b][1,4]diazocin-1(2H)-yl)ethyl)-1-((E)-4-(dimethylamino)but-2-enoyl)-N-methylpyrrolidine-3-carboxamide]",690000 M⁻¹ s⁻¹
10,"Cc1cc(C(F)(F)F)c(C#N)c(N[C@H]2CCN(CC(O)CN3CCN(C(=O)/C=C/CN(C)C)CC3)c3c(F)cccc3N(C)C2=O)n1 (single isomer, unassigned) [Example 32B]",1e+06 M⁻¹ s⁻¹
11,"C=CC(=O)N1CC2(CN(CCN3CC[C@H](Nc4nc(C)cc(C(F)(F)F)c4C#N)C(=O)N(C)c4cccc(C)c43)CCN2)C1 [Example 69, (S)-2-((6-(2-(2-Acryloyl-2,5,8-triazaspiro[3.5]nonan-8-yl)ethyl)-1,7-dimethyl-2-oxo-1,2,3,4,5,6-hexahydrobenzo[b][1,4]diazocin-3-yl)amino)-6-methyl-4-(trifluoromethyl)nicotinonitrile]",4.1e+06 M⁻¹ s⁻¹
12,"C=CC(=O)N1CCN2CCN(CCN3CC[C@H](Nc4nc(C)cc(C(F)(F)F)c4C#N)C(=O)N(C)c4cccc(F)c43)CC2C1 (single isomer, unassigned) [Example 72A]",180000 M⁻¹ s⁻¹
13,"Cc1cc(C(F)(F)F)c(C#N)c(N[C@H]2CCN(CCCOC3CN(C(=O)/C=C/CN(C)C)C3)c3ccccc3N(C)C2=O)n1 [Example 41, (S, E)-2-((6-(3-((1-(4-(Dimethylamino)but-2-enoyl)azetidin-3-yl)oxy)propyl)-1-methyl-2-oxo-1,2,3,4,5,6-hexahydrobenzo[b][1,4]diazocin-3-yl)amino)-6-methyl-4-(trifluoromethyl)nicotinonitrile]",1.4e+06 M⁻¹ s⁻¹
